Test results as given in ChEMBL document CHEMBL5236551, “Andrographolide and its derivatives: Current achievements and future perspectives” (Eur J Med Chem, 2021).
pIC50: −log10 of the molar value. ≈ marks a conversion by molar mass, not a printed value. Where “and” joins values, the source holds several entries; their conditions need not be identical. Equal values may be shown once.

Key:
MCF7 = test: Cytotoxicity against human MCF7 cells; assay type: functional, cell-based
K562 = test: Antiproliferative activity against human K562 cells assessed as reduction in cell viability by MTT assay; assay type: functional, cell-based
KBM5 = test: Antiproliferative activity against human KBM5 cells assessed as reduction in cell viability by MTT assay; assay type: functional, cell-based
Rattus norvegicus = test: Anti-inflammatory activity against egg white-induced paw edema in rat model assessed as detumescence rate measured after 6 hrs relative to control; assay type: functional
T47D = test: Antiproliferative activity against human T47D cells; assay type: functional, cell-based
BT-549 = test: Antiproliferative activity against human BT-549 cells; assay type: functional, cell-based
[1] = Inhibition of mesenchymal transformation in human A549 cells assessed as inhibition rate relative to control; assay type: functional
HK-2 = test: Antiproliferative activity against human HK-2 cells; assay type: functional, cell-based
[2] = Antimigratory activity against human Cardiac fibroblast cells assessed as inhibition rate relative to control; assay type: functional
MDA-MB-231 = test: Antitumor activity against human MDA-MB-231 cells assessed as tumor growth inhibition; assay type: functional, cell-based
Staphylococcus aureus = test: Antibacterial activity against Staphylococcus aureus MTCC 96 assessed as bacterial growth inhibition by broth micro-dilution assay; assay type: functional
enterovirus D68 = test: Antiviral activity against Enterovirus D68 infected in human RD cells assessed as inhibition of viral replication measured after 48 hrs by qRT-PCR analysis; assay type: functional, organism-based; settings: Enterovirus D
[3] = Antimigratory activity against human LX2 cells assessed as inhibition rate relative to control; assay type: functional, LX-2
[4] = Antiviral activity against DENV2 infected in human HeLa cells incubated for 1 hrs by plaque assay; assay type: functional, cell-based, dengue virus type 2; settings: Dengue virus
Chikungunya virus = test: Antiviral activity against Chikungunya virus; assay type: functional, organism-based
[5] = test system: Human immunodeficiency virus; test: Antiviral activity against HIV infected in human C8166 cells; assay type: functional, organism-based
[6] = Antiviral activity against DENV2 infected in human HepG2 cells incubated for 1 hrs by plaque assay; assay type: functional, cell-based, dengue virus type 2; settings: Dengue virus, HepG2, 1 h
MDA-MB-361 = test: Antitumor activity against human MDA-MB-361 cells assessed as tumor growth inhibition; assay type: functional, cell-based
[7] = Antiviral activity against HIV infected in human MT2 cells; assay type: functional, cell-based; settings: Human immunodeficiency virus 1, MT2
HCT-116 = test: Antiproliferative activity against human HCT-116 cells assessed as cell growth inhibition measured after 48 hrs by MTT assay; assay type: functional, cell-based; settings: HCT-116, 48 h

## C=C1CC[C@@H]2[C@](C)(CO)[C@H](O)CC[C@@]2(C)[C@@H]1C/C=C1/C(=O)OC[C@H]1O [ANDROGRAPHOLIDE]
MCF7
  pIC50: 4.45
K562
  pIC50: 4.63
KBM5
  pIC50: 5.07
Rattus norvegicus
  inhibition (INH): 74.42%
T47D
  pIC50: 4.49
BT-549
  pIC50: 4.63
[1]
  inhibition (INH): 55%
HK-2
  pIC50: 4.51
[2]
  inhibition (INH): 35%
MDA-MB-231
  pIC50: 4.69
Staphylococcus aureus
  MIC: 100 µg/mL (≈ 285 µM)
Enterovirus D68
  pIC50: 5.46
[3]
  inhibition (INH): 15%
[4]
  pIC50: 4.64
Chikungunya virus
  pIC50: 6.22
[5]
  pIC50: 5.10 and 5.63
[6]
  pIC50: 4.68
MDA-MB-361
  pIC50: 4.50
[7]
  pIC50: 3.85
HCT-116
  pIC50: 4.50
